Measurements reported in patent US20030170730A1, “Assay method, peptides and reagent kits for testing mrp-specific inhibitors” (priority 2000, published 2003).
Values belong to the molecule of their own block, whether it stands above or below them.

Columns and labels:
[1] = test system: murine and human cells expressing MRP; conditions: cited from earlier work
MRP1-MDR1 chimeras = format: biochemical, human; conditions: pretreatment with 1 mM
Protocol: (§1) The filters were washed twice with 0.5 ml of cold transport buffer, and filter-bound radioactivity was measured in scintillation fluid (Optifluor, Packard). ATP-dependent transport was calculated by subtracting the activity values obtained with AMP from those in the presence of ATP.
Covalent photoaffinty labeling of the proteins was performed with Mg-8-azido-[α-^32P)-ATP in the presence of vanadate as a trapping agent (set Materials and Methods).

MRP1 variants = MRP1 variants (Homo sapiens, UniProt P33527); assay: Vanadate-dependent nucleotide trapping by MRP1 variants in Sf9 membranes; conditions: pretreatment with 1 mM
MRP1 variants, sequence (P33527 281-1531): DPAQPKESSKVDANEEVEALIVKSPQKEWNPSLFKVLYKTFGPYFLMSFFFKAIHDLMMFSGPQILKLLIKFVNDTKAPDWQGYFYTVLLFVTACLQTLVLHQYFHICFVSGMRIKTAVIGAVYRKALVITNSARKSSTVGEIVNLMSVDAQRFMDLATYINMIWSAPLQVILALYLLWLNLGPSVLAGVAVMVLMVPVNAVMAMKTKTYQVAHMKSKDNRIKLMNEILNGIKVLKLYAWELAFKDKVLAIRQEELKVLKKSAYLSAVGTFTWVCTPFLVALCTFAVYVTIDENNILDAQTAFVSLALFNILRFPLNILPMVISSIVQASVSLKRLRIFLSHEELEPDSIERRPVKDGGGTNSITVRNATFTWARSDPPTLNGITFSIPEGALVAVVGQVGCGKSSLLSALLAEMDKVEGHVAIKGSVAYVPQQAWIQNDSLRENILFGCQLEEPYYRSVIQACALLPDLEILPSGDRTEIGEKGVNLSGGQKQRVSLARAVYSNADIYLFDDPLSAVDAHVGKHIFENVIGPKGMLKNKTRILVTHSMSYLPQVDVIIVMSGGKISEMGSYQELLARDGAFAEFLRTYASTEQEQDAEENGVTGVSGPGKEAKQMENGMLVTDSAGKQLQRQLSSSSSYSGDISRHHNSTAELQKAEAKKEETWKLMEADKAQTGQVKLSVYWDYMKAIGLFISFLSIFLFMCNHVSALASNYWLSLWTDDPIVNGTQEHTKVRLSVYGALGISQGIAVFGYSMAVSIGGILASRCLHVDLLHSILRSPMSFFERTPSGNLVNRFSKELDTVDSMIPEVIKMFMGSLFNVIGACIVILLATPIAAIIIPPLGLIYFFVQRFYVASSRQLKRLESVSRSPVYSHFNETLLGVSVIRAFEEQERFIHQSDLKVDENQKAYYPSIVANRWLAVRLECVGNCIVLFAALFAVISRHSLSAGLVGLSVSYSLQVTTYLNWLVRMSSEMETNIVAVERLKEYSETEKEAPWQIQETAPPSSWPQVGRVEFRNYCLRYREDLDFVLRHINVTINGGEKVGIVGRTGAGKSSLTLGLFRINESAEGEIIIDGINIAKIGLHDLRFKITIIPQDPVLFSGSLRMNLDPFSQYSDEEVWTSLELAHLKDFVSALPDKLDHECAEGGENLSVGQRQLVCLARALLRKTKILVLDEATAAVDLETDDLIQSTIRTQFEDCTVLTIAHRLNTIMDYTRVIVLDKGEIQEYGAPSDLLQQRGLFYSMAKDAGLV
MRP1 variants, sequence (P33527 with tags, fused parts or gaps): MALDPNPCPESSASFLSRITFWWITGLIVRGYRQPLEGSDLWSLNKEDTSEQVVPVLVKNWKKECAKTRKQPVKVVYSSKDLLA

MRP1 = MRP1 (Homo sapiens, UniProt P33527); assay: ATP-dependent tracer (LTC4, NEM-GS) uptake in Sf9 membrane vesicles containing MRP1; conditions: 37° C.
MRP1, sequence (P33527 whole entry): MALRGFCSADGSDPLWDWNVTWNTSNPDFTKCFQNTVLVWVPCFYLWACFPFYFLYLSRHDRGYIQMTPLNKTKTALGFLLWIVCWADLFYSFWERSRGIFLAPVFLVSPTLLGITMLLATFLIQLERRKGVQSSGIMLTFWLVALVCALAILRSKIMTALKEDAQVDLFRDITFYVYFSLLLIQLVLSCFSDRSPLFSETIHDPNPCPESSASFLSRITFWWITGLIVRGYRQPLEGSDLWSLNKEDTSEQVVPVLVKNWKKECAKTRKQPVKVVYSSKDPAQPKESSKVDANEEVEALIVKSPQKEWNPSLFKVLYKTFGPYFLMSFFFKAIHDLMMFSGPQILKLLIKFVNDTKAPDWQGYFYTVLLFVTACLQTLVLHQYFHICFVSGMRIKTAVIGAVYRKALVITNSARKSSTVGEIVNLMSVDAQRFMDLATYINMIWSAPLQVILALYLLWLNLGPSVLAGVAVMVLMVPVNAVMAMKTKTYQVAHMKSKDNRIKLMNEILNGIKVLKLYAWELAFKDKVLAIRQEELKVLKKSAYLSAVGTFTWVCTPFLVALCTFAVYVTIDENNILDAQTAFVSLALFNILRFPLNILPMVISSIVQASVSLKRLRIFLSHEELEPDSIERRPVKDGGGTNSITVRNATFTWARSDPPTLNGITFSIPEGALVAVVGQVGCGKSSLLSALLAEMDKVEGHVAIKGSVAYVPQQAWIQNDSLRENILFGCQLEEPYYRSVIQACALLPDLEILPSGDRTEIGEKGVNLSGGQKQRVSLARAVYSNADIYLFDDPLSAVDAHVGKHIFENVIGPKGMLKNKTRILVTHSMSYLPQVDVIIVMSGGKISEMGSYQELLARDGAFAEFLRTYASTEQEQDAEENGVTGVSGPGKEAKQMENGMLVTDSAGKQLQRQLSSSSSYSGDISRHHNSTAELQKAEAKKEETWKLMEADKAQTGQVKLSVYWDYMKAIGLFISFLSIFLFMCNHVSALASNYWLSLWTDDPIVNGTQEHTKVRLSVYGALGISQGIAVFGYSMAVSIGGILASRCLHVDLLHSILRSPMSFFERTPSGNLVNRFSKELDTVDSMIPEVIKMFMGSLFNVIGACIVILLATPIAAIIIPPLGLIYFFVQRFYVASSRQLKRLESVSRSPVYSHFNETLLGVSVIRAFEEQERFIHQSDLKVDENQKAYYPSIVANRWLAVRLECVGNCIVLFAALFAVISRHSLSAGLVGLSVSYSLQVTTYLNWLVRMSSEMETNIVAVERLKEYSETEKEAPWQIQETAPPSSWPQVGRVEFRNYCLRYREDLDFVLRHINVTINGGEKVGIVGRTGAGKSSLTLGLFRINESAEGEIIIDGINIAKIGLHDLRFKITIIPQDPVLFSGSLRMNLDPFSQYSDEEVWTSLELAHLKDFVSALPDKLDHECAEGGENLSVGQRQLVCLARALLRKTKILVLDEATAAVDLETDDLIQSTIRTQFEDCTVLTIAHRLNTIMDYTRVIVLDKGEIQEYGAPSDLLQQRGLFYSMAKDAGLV
Protocol: as §1

co-expressed ΔMRP1+L0 = co-expressed ΔMRP1+L0 (Homo sapiens, UniProt P33527); assay: ATP-dependent tracer (LTC4, NEM-GS) uptake in Sf9 membrane vesicles containing co-expressed ΔMRP1 and L0; conditions: read-out: Km for transport of NEM-GS
co-expressed ΔMRP1+L0, sequence (P33527 281-1531, stated change not applied): as the sequence (P33527 281-1531) above
co-expressed ΔMRP1+L0, sequence (P33527 204-281, stated change not applied): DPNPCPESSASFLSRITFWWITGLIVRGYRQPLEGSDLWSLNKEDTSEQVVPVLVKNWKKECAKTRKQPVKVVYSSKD
Protocol: as §1

SMILES: COc1ccc2c(c1)c(CC(=O)O)c(C)n2C(=O)c1ccc(Cl)cc1 [indomethacine]
efflux of fluorescent dye BCECF [1]: effectively inhibited

inhibition of nucleotide trapping (MRP1 variants): full inhibition
SMILES: CCN1C(=O)C=CC1=O [N-ethylmaleimide]
inhibition of nucleotide trapping (MRP1-MDR1 chimeras): full inhibition

initial rate of ATP-dependent NEM-GS transport (MRP1; 50 μM NEM-GS, MRP1 containing membranes): about 250 pmol mg^−1
Km (MRP1; read-out: Km for transport of NEM-GS, wild-type MRP1, Sf9 membrane vesicles): 150 µM
Km (co-expressed ΔMRP1+L0): ~400 µM
SMILES: CCN1C(=O)CC(SC[C@H](NC(=O)CC[C@H](N)C(=O)O)C(=O)NCC(=O)O)C1=O (stereo partly drawn) [NEM-GS]
